From paper PMC3958311 (EMBO Molecular Medicine, 2014)
≈ marks a conversion by molar mass, not a printed value. Where “and” joins values, the source holds several entries; their conditions need not be identical. Identical values can stand only once.

How the values were obtained:
M. tuberculosis H37Rv = details: stated in the Introduction; ref Makarov et al, 2009; cited from earlier work
M. tuberculosis NTB1 = format: cell-based, Mycobacterium tuberculosis

Row | Molecule | MIC (M. tuberculosis H37Rv) | MIC99 (M. tuberculosis NTB1) | fold increased resistance conferred by the Cys387Ser mutation in DprE1 (M. tuberculosis NTB1)
1 | C[C@H]1COC2(CCN(c3nc(=O)c4cc(C(F)(F)F)cc([N+](=O)[O-])c4s3)CC2)O1 [BTZ043, 2-[(2S)-2-methyl-1,4-dioxa-8-azaspiro[4.5]dec-8-yl]-8-nitro-6-(trifluoromethyl)-4H-1,3-benzothia-zin-4-one] | 1 ng/ml and 2.3 nM | 25 µg/mL (≈ 58 µM) | > 10 000 fold
2 | moxifloxicin [MXF] | – | 0.03 µg/mL | –
3 | CO[C@H]1/C=C/O[C@@]2(C)Oc3c(C)c(O)c4c(O)c(c(/C=N/N5CCN(C)CC5)c(O)c4c3C2=O)NC(=O)/C(C)=C\C=C\[C@H](C)[C@H](O)[C@@H](C)[C@@H](O)[C@@H](C)[C@H](OC(C)=O)[C@@H]1C [RIF, rifampicin] | – | 0.001 µg/mL (≈ 0.00122 µM) | –
4 | O=c1nc(N2CCN(CC3CCCCC3)CC2)sc2c([N+](=O)[O-])cc(C(F)(F)F)cc12 [PBTZ169] | – | >100 µg/mL | > 10 000 fold
